The target of the assay is T1, PLK1 (Homo sapiens, UniProt P53350).
T1 construct: PLK kinase domain (amino acids 21-346 preceded by MKKGHHHHHHD); made in house; host or cells: baculovirus infected T. ni cells
Briefly: Assay for inhibition of PLK1 (SPA kinase assay). Format: biochemical. Conditions: 1 μM ATP, 2 nM PLK1 kinase domain, read-out: PLK1 pIC50 (converted). The method, then: I. Assay for Inhibition of PLK1
A. Preparation of 6× N-terminal His-tagged PLK Kinase Domain
6× N-terminal His-tagged PLK kinase domain (amino acids 21-346 preceded by MKKGHHHHHHD) SEQ ID: No. 1. was prepared from baculovirus infected T. ni cells under polyhedrin promoter control. All procedures were performed at 4° C. Cells were lysed In 50 mM HEPES, 200 mM NaCl, 50 mM imidazole, 5% glycerol; pH 7.5. The homogenate was centrifuged at 14K rpm in a SLA-1500 rotor for 1 hr and the supernatant filtered through a 1.2 micron filter. The supernatant was loaded onto a Nickel chelating Sepharose (Amersham Pharmacia) column and washed with lysis buffer. Protein was eluted using 20%, 30% and 100% buffer B steps where buffer B was 50 mM HEPES, 200 mM NaCl, 300 mM imidazole, 5% glycerol; pH 7.5. Fractions containing PLK were determined by SDS-PAGE. Fractions containing PLK were diluted five-fold with 50 mM HEPES, 1 mM DTT, 5% glycerol; pH 7.5, then loaded on an SP Sepharose (Amersham Pharmacia) column. After washing the column with 50 mM HEPES, 1 mM DTT, 5% glycerol; pH 7.5, PLK was step eluted with 50 mM HEPES, 1 mM DTT, 500 mM NaCl; 5% glycerol; pH 7.5. PLK was concentrated using a 10 kDa molecular weight cutoff membrane and then loaded onto a Superdex 200 gel filtration (Amersham Pharmacia) column equilibrated in 25 mM HEPES, 1 mM DTT, 500 mM NaCl, 5% glycerol; pH 7.5. Fractions containing PLK were determined by SDS-PAGE. PLK was pooled, aliquoted and stored at −80° C. Samples were quality controlled using mass spectrometry, N-terminal sequencing and amino acid analysis.
B. Enzyme Activity +/− Inhibitors was Determined as Follows:
All measurements were obtained under conditions where signal production increased linearly with time and enzyme. Test compounds were added to white 384-well assay plates (0.1 μL for 10 μL and some 20 μL assays, 1 μL for some 20 μL assays) at variable known concentrations in 100% DMSO. DMSO (1-5% final, as appropriate) and EDTA (65 mM in reaction) were used as controls. Reaction Mix was prepared as follows at 22° C.: • 25 mM HEPES, pH 7.2 • 15 mM MgCl2 • 1 μM ATP • 0.05 μCi/well ^33P-γ ATP (10 Ci/mMol) • 1 μM substrate peptide (Biotin-Ahx-SFNDTLDFD) SEQ ID:No. 2. • 0.15 mg/mL BSA • 1 mM DTT • 2 nM PLK1 kinase domain (added last)
Reaction Mix (10 or 20 μL) was quickly added to each well immediately following addition of enzyme via automated liquid handlers and incubated 1-1.5 h at 22° C. The 20 μL enzymatic reactions were stopped with 50 μL of stop mix (50 mM EDTA, 4.0 mg/mL Streptavidin SPA beads in Standard Dulbecco's PBS (without Mg^2+ and Ca^2+), 50 μM ATP) per well. The 10 μL reactions were stopped with 10 μL of stop mix (50 mM EDTA, 3.0 mg/mL Streptavidin-coupled SPA imaging Beads (“LeadSeeker”) in Standard Dulbecco's PBS (without Mg^2+ and Ca^2+), 50 μM ATP) per well. Plates were sealed with clear plastic seals, spun at 500×g for 1 min or settled overnight, and counted in Packard TopCount for 30 seconds/well (regular SPA) or imaged using a Viewlux imager (LeadSeeker SPA). Signal above background (EDTA controls) was converted to percent Inhibition relative to that obtained in control (DMSO-only) wells.

Consider 20 compounds from patent US7615643B2 (SmithKline Beecham Corporation, priority 2006, dated 2009).

T1 sequence (P53350 21-346): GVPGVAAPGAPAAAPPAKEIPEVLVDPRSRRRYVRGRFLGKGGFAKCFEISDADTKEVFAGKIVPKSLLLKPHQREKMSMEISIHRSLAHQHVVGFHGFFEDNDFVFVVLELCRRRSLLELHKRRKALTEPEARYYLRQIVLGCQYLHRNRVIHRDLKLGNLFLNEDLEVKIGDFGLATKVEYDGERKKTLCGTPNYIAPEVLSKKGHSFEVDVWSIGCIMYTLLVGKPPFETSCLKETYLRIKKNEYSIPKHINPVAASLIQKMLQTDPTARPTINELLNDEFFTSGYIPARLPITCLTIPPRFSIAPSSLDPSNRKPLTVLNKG

For `C[C@@H](Oc1cc(-n2cnc3cc(-c4cnn(C)c4)ccc32)sc1C(N)=O)c1cccc(OC2CCN(CCS(C)(=O)=O)CC2)c1Cl` [Example 31, 3-({(1R)-1-[2-Chloro-3-({1-[2-(methylsulfonyl)ethyl]-4-piperldinyl}oxy)phenyl]ethyl}oxy)-5-[5-(1-methyl-1H-pyrazol-4-yl)-1H-benzimidazol-1-yl]-2-thiophenecarboxamide], the IC50 was < 100 nM.

For the compound `C[C@@H](Oc1cc(-n2cnc3cc(Cl)ccc32)sc1C(N)=O)c1cccc(OCCN2CCOCC2)c1Cl` [Example 26, 5-(5-Chloro-1H-benzimidazol-1-yl)-3-{[(1R)-1-(2-chloro-3-{[2-(4-morpholinyl)ethyl]oxy}phenyl)ethyl]oxy}-2-thiophenecarboxamide], the IC50 was < 100 nM.

For `C[C@@H](Oc1cc(-n2cnc3cc(Cl)c(Cl)cc32)sc1C(N)=O)c1cccc(OC2CCN(C)CC2)c1Cl` [Example 72, 3-[((1R)-1-{2-chloro-3-[(1-methyl-4-piperidinyl)oxy]phenyl}ethyl)oxy]-5-(5,6-dichloro-1H-benzimidazol-1-yl)-2-thiophenecarboxamide], the IC50 was < 100 nM.

As for `CC(Oc1cc(-n2cnc3cc(-c4cnn(C)c4)ccc32)sc1C(N)=O)c1ccnc(OC2CCN(C)CC2)c1` (centres unmarked) [Example 80, 3-[(1-{2-[(1-Methyl-4-piperidinyl)oxy]-4-pyridinyl}ethyl)oxy]-5-[5-(1-methyl-1H-pyrazol-4-yl)-1H-benzimidazol-1-yl]-2-thiophenecarboxamide], the IC50 was < 100 nM.

On to `C[C@@H](Oc1cc(-n2cnc3ccc(Cl)cc32)sc1C(N)=O)c1cccc(OC2CCN(C)CC2)c1Cl` [Example 53], for which the IC50 is < 100 nM.

Turning to `CC(Oc1cc(-n2cnc3cc(-c4cnn(C)c4)ccc32)sc1C(N)=O)c1cccc(OC2CCN(C)CC2)c1` (racemic) [Example 74, (+/−)-3-[(1-{3-[(1-methyl-4-piperidinyl)oxy]phenyl}ethyl)oxy]-5-[5-(1-methyl-1H-pyrazol-4-yl)-1H -benzimidazol-1-yl]-2-thiophenecarboxamide], the IC50 is < 100 nM.

Consider `C[C@@H](Oc1cc(-n2cnc3ccc(Cl)cc32)sc1C(N)=O)c1cccc(OC2CCNCC2)c1Cl` [Example 52, 5-(6-Chloro-1H-benzimidazol-1-yl)-3-({(1R)-1-[2-chloro-3-(4-piperidinyloxy)phenyl]ethyl}oxy)-2-thiophenecarboxamide], for which the IC50 was < 100 nM.

On to `C[C@@H](Oc1cc(-n2cnc3cc(Cl)ccc32)sc1C(N)=O)c1ccc(F)c(OC2CCN(C)CC2)c1Cl` [Example 32, 5-(5-Chloro-1H-benzimidazol-1-yl)-3-[((1R)-1-{2-chloro-4-fluoro-3-[(1-methyl-4-piperidinyl)oxy]phenyl}ethyl)oxy]-2-thiophenecarboxamide], for which the IC50 was < 100 nM.

With `CCN1CCC(Oc2cccc([C@@H](C)Oc3cc(-n4cnc5cc(Cl)ccc54)sc3C(N)=O)c2Cl)CC1` [Example 19, 5-(5-Chloro-1H-benzimidazol-1-yl)-3-[((1R)-1-{2-chloro-3-[(1-ethyl-4-piperidinyl)oxy]phenyl}ethyl)oxy]-2-thiophenecarboxamide], the IC50 is < 100 nM.

On to `C[C@@H](Oc1cc(-n2cnc3cc(Cl)ccc32)sc1C(N)=O)c1cccc(OC2CCN(CCO)CC2)c1Cl` [Example 20, 5-(5-Chloro-1H-benzimidazol-1-yl)-3-{[(1R)-1-(2-chloro-3-{[1-(2-hydroxyethyl)-4-piperidinyl]oxy}phenyl)ethyl]oxy}-2-thiophenecarboxamide], for which the IC50 is < 100 nM.

Turning to `C[C@@H](Oc1cc(-n2cnc3cc(-c4cc[n+]([O-])cc4)ccc32)sc1C(N)=O)c1cccc(OC2CCNCC2)c1Cl` [Example 37, 3-({(1R)-1-[2-Chloro-3-(4-piperidinyloxy)phenyl]ethyl}oxy)-5-[5-(1-oxido-4-pyridinyl)-1H-benzimidazol-1-yl]-2-thiophenecarboxamide], the IC50 is < 100 nM.

In the case of `COc1cc2ncn(-c3cc(O[C@H](C)c4cccc(NCC5CCN(C)CC5)c4Cl)c(C(N)=O)s3)c2cc1OC` [Example 2], the IC50 was < 100 nM.

On to `C[C@@H](Oc1cc(-n2cnc3cc(Cl)ccc32)sc1C(N)=O)c1cccc(OC2CCN(CCN)CC2)c1Cl` [Example 22, 3-{[(1R)-1-(3-{[1-(2-aminoethyl)-4-piperidinyl]oxy}-2-chlorophenyl)ethyl]oxy}-5-(5-chloro-1H-benzimidazol-1-yl)-2-thiophenecarboxamide], for which the IC50 is < 100 nM.

With `C[C@@H](Oc1cc(-n2cnc3cc(-c4cnn(C)c4)ccc32)sc1C(N)=O)c1ccc(F)c(OC2CCN(CCS(C)(=O)=O)CC2)c1Cl` [Example 36, 3-({(1R)-1-[2-Chloro-4-fluoro-3-({1-[2-(methylsulfonyl)ethyl]-4-piperidinyl}oxy)phenyl]ethyl}oxy)-5-[5-(1-methyl-1H-pyrazol-4-yl)-1H-benzimidazol-1-yl]-2-thiophenecarboxamide], the IC50 is < 100 nM.

As to `C[C@@H](Oc1cc(-n2cnc3cc(-c4cnn(C)c4)ccc32)sc1C(N)=O)c1cccc(OCCN2CCOCC2)c1Cl` [Example 25, 3-{[(1R)-1-(2-chloro-3-{[2-(4-morpholinyl)ethyl]oxy}phenyl)ethyl]oxy}-5-[5-(1-methyl-1H-pyrazol-4-yl)-1H-benzimidazol-1-yl]-2-thiophenecarboxamide], the IC50 is < 100 nM.

As to `Cc1cc(-c2ccc3c(c2)ncn3-c2cc(O[C@H](C)c3cccc(OC4CCN(C)CC4)c3Cl)c(C(N)=O)s2)ccn1` [Example 50, 3-[((1R)-1-{2-Chloro-3-[(1-methyl-4-piperidinyl)oxy]phenyl}ethyl)oxy]-5-[5-(2-methyl-4-pyridinyl)-1H-benzimidazol-1-yl]-2-thiophenecarboxamide], the IC50 is < 100 nM.

On to `COc1cc2ncn(-c3cc(O[C@H](C)c4cccc(OCC5CCNCC5)c4Cl)c(C(N)=O)s3)c2cc1OC` [Example 40, 5-[5.6-Bis(methyloxy)-1H-benzimidazol-1-yl]-3-[((1R)-1-{2-chloro-3-[(4-piperidinylmethyl)oxy]phenyl}ethyl)oxy]-2-thiophenecarboxamide], for which the IC50 is < 100 nM.

Turning to `C[C@@H](Oc1cc(-n2cnc3ccc(CS(C)(=O)=O)cc32)sc1C(N)=O)c1cccc(OCC2CCNCC2)c1Cl` [Example 56, 3-[((1R)-1-{2-chloro-3-[(4-piperidinylmethyl)oxy]phenyl}ethyl)oxy]-5-{6-[(methylsulfonyl)methyl]-1H-benzimidazol-1-yl}-2-thiophenecarboxamide], the IC50 is < 100 nM.

With `C[C@@H](Oc1cc(-n2cnc3cc(OC(F)(F)F)ccc32)sc1C(N)=O)c1cccc(OC2CCNCC2)c1Cl` [Example 61, 3-({(1R)-1-[2-chloro-3-(4-piperidinyloxy)phenyl]ethyl}oxy)-5-{5-[(trifluoromethyl)oxy]-1H-benzimidazol-1-yl}-2-thiophenecarboxamide], the IC50 was < 100 nM.

Turning to `C[C@@H](Oc1cc(-n2cnc3cc(-c4cnn(C)c4)ccc32)sc1C(N)=O)c1cccc(OC2CCNCC2)c1Cl` [Example 47, 3-({(1R)-1-[2-Chloro-3-(4-piperidinyloxy)phenyl]ethyl}oxy)-5-[5-(1-methyl-1H-pyrazol-4-yl)-1H-benzimidazol-1-yl]-2-thiophenecarboxamide], the IC50 was < 100 nM.
